Assay results published in the Kinase Knowledgebase extract (Sharma et al. 2016).

target: PIK3CG (human) (UniProt P48736); experiment: Inhibition of PIK3CG Kinase Activity
Sequence (P48736 whole entry, looked up): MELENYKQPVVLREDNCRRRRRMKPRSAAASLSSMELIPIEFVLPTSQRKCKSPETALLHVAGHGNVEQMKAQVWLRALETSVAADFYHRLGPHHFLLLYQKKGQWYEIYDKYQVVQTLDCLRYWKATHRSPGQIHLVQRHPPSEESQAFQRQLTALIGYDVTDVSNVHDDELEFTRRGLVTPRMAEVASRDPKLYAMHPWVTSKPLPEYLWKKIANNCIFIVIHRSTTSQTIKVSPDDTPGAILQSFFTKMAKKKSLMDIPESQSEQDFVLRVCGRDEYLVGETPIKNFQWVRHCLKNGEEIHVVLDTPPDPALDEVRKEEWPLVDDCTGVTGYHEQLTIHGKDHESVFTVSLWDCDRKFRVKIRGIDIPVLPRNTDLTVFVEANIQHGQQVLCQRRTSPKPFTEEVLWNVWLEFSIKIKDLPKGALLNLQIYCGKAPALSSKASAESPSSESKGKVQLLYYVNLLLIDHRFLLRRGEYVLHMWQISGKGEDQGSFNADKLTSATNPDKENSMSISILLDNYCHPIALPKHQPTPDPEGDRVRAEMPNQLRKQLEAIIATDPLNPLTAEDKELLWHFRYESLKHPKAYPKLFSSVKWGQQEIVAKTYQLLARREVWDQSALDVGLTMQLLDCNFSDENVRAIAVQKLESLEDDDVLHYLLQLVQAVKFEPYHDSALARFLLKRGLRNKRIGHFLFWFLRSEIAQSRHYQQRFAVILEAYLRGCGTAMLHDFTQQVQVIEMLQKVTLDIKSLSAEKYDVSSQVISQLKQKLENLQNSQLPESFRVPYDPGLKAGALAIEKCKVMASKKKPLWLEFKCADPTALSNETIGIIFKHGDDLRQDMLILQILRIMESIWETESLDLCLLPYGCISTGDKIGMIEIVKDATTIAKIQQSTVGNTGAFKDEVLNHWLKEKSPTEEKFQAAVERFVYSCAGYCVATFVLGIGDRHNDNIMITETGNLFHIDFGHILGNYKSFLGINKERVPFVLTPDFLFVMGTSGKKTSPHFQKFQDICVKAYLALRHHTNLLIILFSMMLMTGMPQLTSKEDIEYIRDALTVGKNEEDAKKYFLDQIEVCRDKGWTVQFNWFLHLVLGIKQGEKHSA

IC50	SMILES
< 600 nM	CC(=O)Nc1nc2c(s1)-c1c(c(C3CC3)nn1-c1ccc(C(=O)N3CCC(N(C)C4CCCC4)CC3)c(C)c1)CC2
< 600 nM	CC(=O)Nc1nc2c(s1)-c1c(c(C3CC3)nn1-c1ccc(C(=O)N(C)[C@@H]3CCN(C4CCCC4)C3)cc1Cl)CC2
< 600 nM	CCCN1CCC(NC(=O)c2ccc(-n3nc(C4CC4)c4c3-c3sc(NC(C)=O)nc3CC4)c(C)c2)CC1
< 600 nM	CC(=O)Nc1nc2c(s1)-c1c(c(C3CC3)nn1-c1ccc(C(=O)N(C)[C@H]3CC[C@@H](N(C)CC4CC4)CC3)c(F)c1)CC2
< 600 nM	CCN(C(=O)c1ccc(-n2nc(C3CC3)c3c2-c2sc(NC(C)=O)nc2CC3)c(F)c1)[C@H]1CC[C@@H](N2CCCC2)CC1
< 600 nM	CC(=O)Nc1nc2c(s1)-c1c(c(C3CC3)nn1-c1ccc(C(=O)NC3CCN(C4CCCCC4)CC3)cc1C)CC2
< 600 nM	CC(=O)Nc1nc2c(s1)-c1c(c(C3CC3)nn1-c1ccc(C(=O)NC3CCN(C4CCCCC4)CC3)c(F)c1)CC2
< 600 nM	CC(=O)Nc1nc2c(s1)-c1c(c(C3CCCC3)nn1-c1ccc(C(=O)N[C@H]3CC[C@@H](N4CCCC4)CC3)cc1Cl)CC2
< 600 nM	COc1cc(-n2nc(C3CC3)c3c2-c2sc(NC(C)=O)nc2CC3)ccc1C(=O)N1CCC(N2CCCC2)CC1
< 600 nM	CC(=O)Nc1nc2c(s1)-c1c(c(C3CC3)nn1-c1ccc(C(=O)N[C@H]3CCN(CC4CCCC4)C3)cc1F)CC2
< 600 nM	CC(=O)Nc1nc2c(s1)-c1c(c(C3CC3)nn1-c1ccccc1)CC2
< 600 nM	CC(=O)Nc1nc2c(s1)-c1c(c(C3(C)CC3)nn1-c1ccc(C(=O)NC3CCN(C)CC3)cc1Cl)CC2
< 600 nM	CCCN1CC[C@@H](NC(=O)c2ccc(-n3nc(C4CC4)c4c3-c3sc(NC(C)=O)nc3CC4)cc2C)C1
< 600 nM	CCCN1CCC(NC(=O)c2ccc(-n3nc(C4CC4)c4c3-c3sc(NC(C)=O)nc3CC4)c(Cl)c2)CC1
< 600 nM	CC(=O)Nc1nc2c(s1)-c1c(c(C3CC3)nn1-c1ccc(C(=O)N[C@H]3CC[C@@H](N4CCCC4)CC3)c(F)c1)CC2
< 600 nM	CC(=O)Nc1nc2c(s1)-c1c(c(C3CC3)nn1-c1ccc(C(=O)N(C)[C@@H]3CCN(C4CCCC4)C3)cc1F)CC2
< 600 nM	CC(=O)Nc1nc2c(s1)-c1c(c(C3CC3)nn1-c1ccc(C(=O)NC3CCN(C4CCOCC4)CC3)c(F)c1)CC2
< 600 nM	CC(=O)Nc1nc2c(s1)-c1c(c(C3CC3)nn1-c1ccc(C(=O)N(C)C3CCN(C4CCCC4)CC3)c(Cl)c1)CC2
< 600 nM	CC(=O)Nc1nc2c(s1)-c1c(c(C3CC3)nn1-c1ccc(NC(=O)C3CCN(C4CCCC4)CC3)cc1Cl)CC2
< 600 nM	CC(=O)Nc1nc2c(s1)-c1c(c(C3CC3)nn1-c1ccc(C(=O)NC[C@@H]3CCCN3CC3CCCC3)c(Cl)c1)CC2
< 600 nM	CC(=O)Nc1nc2c(s1)-c1c(c(C3CC3)nn1-c1ccc(C(=O)N[C@@H]3CCN(C4CCCCC4)C3)cc1Cl)CC2
< 600 nM	CC(=O)Nc1nc2c(s1)-c1c(c(C3CC3)nn1-c1ccc(CC(=O)N[C@@H]3CCN(C4CCCC4)C3)cc1Cl)CC2
< 60 nM	CC(=O)Nc1nc2c(s1)-c1c(c(C3CC3)nn1-c1ccc(O)cc1Cl)CC2

IC50	SMILES
< 600 nM	CC(=O)Nc1nc2c(s1)-c1c(c(C3CCCC3)nn1-c1ccc(C(=O)NC3CCN(CC4CCCC4)CC3)cc1Cl)CC2
< 600 nM	CC(=O)Nc1nc2c(s1)-c1c(c(C3CC3)nn1-c1ccc(C(=O)N[C@H]3CC[C@@H](N4CCOCC4)CC3)c(Cl)c1)CC2
< 600 nM	CC(=O)Nc1nc2c(s1)-c1c(c(C3CC3)nn1-c1ccc(C(=O)NC3CCN(C4CCCCC4)CC3)cc1F)CC2
< 600 nM	CC(=O)Nc1nc2c(s1)-c1c(c(C3CC3)nn1-c1ccc(NCC3CCN(C4CCCC4)CC3)cc1Cl)CC2
< 600 nM	CC(=O)Nc1nc2c(s1)-c1c(c(C3CC3)nn1-c1ccc(C(=O)NC3CCN(C)CC3)cc1Cl)CC2
< 600 nM	CC(=O)Nc1nc2c(s1)-c1c(c(C3CC3)nn1-c1ccc(C(=O)NC[C@H]3CCNC3)c(Cl)c1)CC2
< 600 nM	CCCN1CCC(NC(=O)c2ccc(-n3nc(C4CC4)c4c3-c3sc(NC(C)=O)nc3CC4)cc2Cl)CC1
< 600 nM	CC(=O)Nc1nc2c(s1)-c1c(c(C3CC3)nn1C1CCN(C(=O)C3CCN(CC4CCCCC4)CC3)CC1)CC2
< 600 nM	CC(=O)Nc1nc2c(s1)-c1c(c(C3CC3)nn1-c1ccc(C(=O)NCc3ccncc3)cc1Cl)CC2
< 600 nM	CC(=O)Nc1nc2c(s1)-c1c(c(C3CC3)nn1-c1ccc(C(=O)N3CCC(N4CCCC4)CC3)cc1Cl)CC2
< 600 nM	CC(=O)Nc1nc2c(s1)-c1c(c(C3CC3)nn1-c1ccc(C(=O)N[C@H]3CC[C@@H](N4CCCC4)CC3)cc1F)CC2
< 600 nM	CC(=O)Nc1nc2c(s1)-c1c(c(C3CC3)nn1-c1ccc(C(=O)N(C)[C@H]3CC[C@@H](N(C)CC4CCCC4)CC3)cc1C)CC2
< 600 nM	CC(=O)Nc1nc2c(s1)-c1c(c(C3CC3)nn1C1CCC(C(=O)N[C@H]3CC[C@@H](N4CCCC4)CC3)CC1)CC2 (some centres not stated)
< 600 nM	CC(=O)Nc1nc2c(s1)-c1c(c(C3CCC3)nn1-c1ccc(C(=O)N[C@H]3CC[C@@H](N4CCCCC4)CC3)cc1Cl)CC2
< 600 nM	CC(=O)Nc1nc2c(s1)-c1c(c(C3CC3)nn1C1CCC(C(=O)N(C)[C@H]3CC[C@H](N4CCCC4)CC3)CC1)CC2 (some centres not stated)
< 600 nM	CC(=O)Nc1nc2c(s1)-c1c(c(C3CC3)nn1C1CCC(C(=O)NC3CCN(C4CCCC4)CC3)CC1)CC2 (configuration not stated)
< 600 nM	CC(=O)Nc1nc2c(s1)-c1c(c(C3CC3)nn1-c1ccc(C(=O)N(C)[C@H]3CC[C@@H](N4CCCCC4)CC3)c(C)c1)CC2
< 600 nM	COc1cc(-n2nc(C3CC3)c3c2-c2sc(NC(C)=O)nc2CC3)ccc1C(=O)N[C@H]1CC[C@@H](N2CCCC2)CC1
< 600 nM	CC(=O)Nc1nc2c(s1)-c1c(c(C3CCC3)nn1-c1ccc(C(=O)NC3CCN(C4CCOCC4)CC3)cc1Cl)CC2
< 600 nM	CC(=O)Nc1nc2c(s1)-c1c(c(C3CC3)nn1-c1ccc(N)cc1Cl)CC2
< 600 nM	CC(=O)Nc1nc2c(s1)-c1c(c(C3CC3)nn1-c1ccc(C(=O)N[C@H]3CC[C@@H](N(C)CC4CC4)CC3)c(Cl)c1)CC2
< 600 nM	CNC(=O)C1CCC(n2nc(C3CC3)c3c2-c2sc(NC(C)=O)nc2CC3)CC1 (configuration not stated)
< 600 nM	CC(=O)Nc1nc2c(s1)-c1c(c(C3CC3)nn1C1CCC(C(N)=O)CC1)CC2 (configuration not stated)

IC50	SMILES
< 600 nM	CC(=O)Nc1nc2c(s1)-c1c(c(C3CCC3)nn1-c1ccc(C(=O)NC3CCN(C)CC3)cc1Cl)CC2
< 600 nM	CC(=O)Nc1nc2c(s1)-c1c(c(C3CC3)nn1-c1ccc(NCC3CCCCC3)cc1Cl)CC2
< 600 nM	CCCN1CCC(NC(=O)c2ccc(-n3nc(C4CC4)c4c3-c3sc(NC(C)=O)nc3CC4)c(F)c2)CC1
< 600 nM	CC(=O)Nc1nc2c(s1)-c1c(c(C3CC3)nn1-c1ccc(C(=O)NCC3CCN(CC4CCCC4)CC3)c(Cl)c1)CC2
< 600 nM	CCCN1CCC(NC(=O)c2ccc(-n3nc(C4CC4)c4c3-c3sc(NC(C)=O)nc3CC4)cc2C)CC1
< 600 nM	CC(=O)Nc1nc2c(s1)-c1c(c(C3CC3)nn1-c1ccc(C(=O)NC3CCN(C4CCOCC4)CC3)cc1Cl)CC2
< 600 nM	CC(=O)Nc1nc2c(s1)-c1c(c(C3CC3)nn1-c1ccc(C(=O)N(C)[C@H]3CC[C@@H](N(C)CC4CCCC4)CC3)cc1F)CC2
< 600 nM	CC(=O)Nc1nc2c(s1)-c1c(c(C3CC3)nn1-c1ccc(C(=O)NC3CCN(C4CCCC4)CC3)c(F)c1)CC2
< 600 nM	CCN(C(=O)c1ccc(-n2nc(C3CC3)c3c2-c2sc(NC(C)=O)nc2CC3)cc1Cl)[C@H]1CC[C@@H](N2CCCC2)CC1
< 600 nM	CC(=O)Nc1nc2c(s1)-c1c(c(C3CC3)nn1-c1ccc(C(=O)NC3CCN(CC4CCCC4)CC3)c(F)c1)CC2
< 600 nM	CC(=O)Nc1nc2c(s1)-c1c(c(C3CC3)nn1-c1ccc(NCC3CCN(C(=O)OC(C)(C)C)CC3)cc1Cl)CC2
< 600 nM	CC(=O)Nc1nc2c(s1)-c1c(c(C3CC3)nn1C1CCC(C(=O)N[C@H]3CC[C@H](N4CCCC4)CC3)CC1)CC2 (some centres not stated)
< 600 nM	CC(=O)Nc1nc2c(s1)-c1c(c(C3CC3)nn1-c1ccc(C(=O)NC3CCN(C4CCOCC4)CC3)c(C)c1)CC2
< 600 nM	CC(=O)Nc1nc2c(s1)-c1c(c(C3CC3)nn1-c1ccc(C(=O)N(C)[C@@H]3CCN(CC4CCCC4)C3)c(F)c1)CC2
< 600 nM	CNC(=O)c1ccc(-n2nc(C3CC3)c3c2-c2sc(NC(C)=O)nc2CC3)c(Cl)c1
< 600 nM	CC(=O)Nc1nc2c(s1)-c1c(c(C3CC3)nn1-c1ccc(C(=O)N3CCC(N4CCCC4)CC3)c(C)c1)CC2
< 600 nM	CC(=O)Nc1nc2c(s1)-c1c(c(C3CC3)nn1-c1ccc(N(C)C(=O)C3CCN(C4CCCC4)CC3)cc1Cl)CC2
< 600 nM	CC(=O)Nc1nc2c(s1)-c1c(c(C3CC3)nn1-c1ccc(C(=O)N[C@H]3CC[C@@H](N4CCCCC4)CC3)cc1F)CC2
< 600 nM	COc1cc(-n2nc(C3CC3)c3c2-c2sc(NC(C)=O)nc2CC3)ccc1C(=O)N(C)C1CCN(C2CCCC2)CC1
< 600 nM	CC(=O)Nc1nc2c(s1)-c1c(c(C3CC3)nn1-c1ccc(C(=O)N(C)[C@H]3CC[C@@H](N(C)CC4CC4)CC3)cc1Cl)CC2
< 600 nM	CC(=O)Nc1nc2c(s1)-c1c(c(C3CC3)nn1-c1ccc(C(=O)NC3CCN(CC4CCCCC4)CC3)cc1C)CC2
